The target in test [1] is Group IIA secretory phospholipase A2 (Homo sapiens). The experiment in a line: Compound was measured for the inhibitory activity against Secretory phospholipase A 2 (s-PLA2).
Test [2] has the same target. The experiment in a line: Compound was measured for the inhibitory activity against secretory-phospholipase A2 (s-PLA2).

As a reminder, the IC50 is the concentration that inhibits the measured activity by half. The low end stands for higher potency, the high end for lower potency. In test [1], `CCCCCCCOc1ccc(C(=O)O)cc1CC(=O)C(F)(F)F` [4-Heptyloxy-3-(3,3,3-trifluoro-2-oxo-propyl)-benzoic acid] returned an IC50 of 1.7 µM. In test [1], `O=C(O)c1ccc2cccc(C(=O)C(F)(F)F)c2c1` [8-(2,2,2-Trifluoro-acetyl)-naphthalene-2-carboxylic acid] displayed an IC50 of 2.4 µM. In test [2], `CCCCCCCCCCCCCCCCCCOP(=O)(O)c1cccc2ccc(C(=O)O)cc12` [8-(Hydroxy-octadecyloxy-phosphoryl)-naphthalene-2-carboxylic acid] displayed an IC50 of 3.9 µM. In test [1], `CCCCCCCCOP(=O)(O)c1cccc2ccc(C(=O)O)cc12` [8-(Hydroxy-octyloxy-phosphoryl)-naphthalene-2-carboxylic acid] yielded an IC50 greater than 200 µM.

The molecule `CCCCCCCCCCOP(=O)(O)c1cc(OCc2ccccc2)ccc1/C=C/C(=O)O` [(E)-3-[4-Benzyloxy-2-(decyloxy-hydroxy-phosphoryl)-phenyl]-acrylic acid] had an IC50 in test [1] of 4.5 µM.

The values are drawn from BindingDB's records for doi:10.1016/S0960-894X(97)00246-1 (1997).
